Data from PubChem BioAssay (NCI).
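48-hour exposure; five concentrations; linearly interpolated endpoints. Abbreviation: GI50, concentration required for 50% inhibition of growth. At the TGI there is no net growth.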

Experiments:
Assay in all cases: NCI tumour cell line growth inhibition, 48 h
[1] = tested on: 786-0 renal
[2] = tested on: A498 renal
[3] = tested on: A549 NSCLC
[4] = tested on: ACHN renal
[5] = tested on: BT-549 breast
[6] = tested on: CAKI-1 renal
[7] = tested on: CCRF-CEM leukemia
[8] = tested on: COLO 205 colon
[9] = tested on: DU-145 prostate
[10] = tested on: HCC-2998 colon
[11] = tested on: HCT-116 colon
[12] = tested on: HCT-15 colon
[13] = tested on: HL-60(TB) leukemia
[14] = tested on: HOP-62 NSCLC
[15] = tested on: HS 578T breast
[16] = tested on: HT29 colon
[17] = tested on: IGROV1 ovarian
[18] = tested on: K-562 leukemia
[19] = tested on: KM12 colon
[20] = tested on: M14 melanoma
[21] = tested on: MALME-3M melanoma
[22] = tested on: MCF7 breast
[23] = tested on: MDA-MB-231 breast
[24] = tested on: MDA-MB-435
[25] = tested on: MOLT-4 leukemia
[26] = tested on: NCI-H226 lung
[27] = tested on: NCI-H23 lung
[28] = tested on: NCI-H460 lung
[29] = tested on: NCI-H522 lung
[30] = tested on: NCI/ADR-RES ovarian
[31] = tested on: OVCAR-3 ovarian
[32] = tested on: OVCAR-4 ovarian
[33] = tested on: OVCAR-5 ovarian
[34] = tested on: OVCAR-8 ovarian
[35] = tested on: PC-3 prostate
[36] = tested on: RPMI-8226 leukemia
[37] = tested on: RXF 393 renal
[38] = tested on: SF-268 CNS
[39] = tested on: SF-295 CNS
[40] = tested on: SF-539 CNS
[41] = tested on: SK-MEL-28 melanoma
[42] = tested on: SK-MEL-5 melanoma
[43] = tested on: SK-OV-3 ovarian
[44] = tested on: SN12C renal
[45] = tested on: SNB-19 CNS
[46] = tested on: SNB-75 CNS
[47] = tested on: SR leukemia
[48] = tested on: SW-620 colon
[49] = tested on: T-47D breast
[50] = tested on: TK-10 renal
[51] = tested on: UACC-257 melanoma
[52] = tested on: UACC-62 melanoma
[53] = tested on: UO-31 renal

Work on `O=C(OCc1ncc(-c2ccc(C(F)(F)F)cc2)c(NC2CCCCCC2)n1)c1c(F)c(F)c(F)c(F)c1F` yielded a GI50 [1] of 11.4 µM, a TGI [1] of 27.2 µM and a GI50 [2] of 18.7 µM. It also gave a TGI [2] of 33.2 µM, a GI50 [3] of 18.2 µM and a TGI [3] of 51.4 µM. For the same compound, the GI50 [4] was 14.2 µM, the TGI [4] was 29.2 µM and the GI50 [5] was 9 µM. It also gave a TGI [5] of 27.1 µM, a GI50 [6] of 17.5 µM and a TGI [6] of 37.3 µM. For the same compound, the GI50 [7] was 1.83 µM, the TGI [7] was 7.02 µM and the GI50 [8] was 18 µM. The TGI [8] was 37.8 µM, the GI50 [9] was 12.5 µM and the TGI [9] was 25.3 µM. The GI50 [10] was 16.7 µM, the TGI [10] was 32.7 µM and the GI50 [11] was 8.46 µM. For the same compound, the TGI [11] was 25.9 µM, the GI50 [12] was 1.94 µM and the TGI [12] was 4.78 µM. For the same compound, the GI50 [13] was 5.53 µM, the TGI [13] was 22 µM and the GI50 [14] was 18.8 µM. For the same compound, the TGI [14] was 34.3 µM, the GI50 [15] was 16.2 µM and the TGI [15] was 51.9 µM. For the same compound, the GI50 [16] was 13.8 µM, the TGI [16] was 40 µM and the GI50 [17] was 2.86 µM. It also gave a TGI [17] of 7.28 µM, a GI50 [18] of 4.86 µM and a TGI [18] of 30.2 µM. For the same compound, the GI50 [19] was 18.1 µM, the TGI [19] was 42.5 µM and the GI50 [20] was 17.3 µM. The TGI [20] was 39.6 µM, the GI50 [21] was 16.6 µM and the TGI [21] was 32.6 µM. For the same compound, the GI50 [22] was 2.06 µM, the TGI [22] was 5.81 µM and the GI50 [23] was 9.93 µM. For the same compound, the TGI [23] was 23.2 µM, the GI50 [24] was 15.8 µM and the TGI [24] was 32.6 µM. The GI50 [25] was 3.42 µM, the TGI [25] was 11.8 µM and the GI50 [26] was 5.59 µM. For the same compound, the TGI [26] was 21.2 µM, the GI50 [27] was 10.6 µM and the TGI [27] was 28 µM. For the same compound, the GI50 [28] was 17.3 µM, the TGI [28] was 40.1 µM and the GI50 [29] was 3.9 µM. For the same compound, the TGI [29] was 14.6 µM, the GI50 [30] was 21.2 µM and the TGI [30] was 55.5 µM. It also gave a GI50 [31] of 4.09 µM, a TGI [31] of 13.8 µM and a GI50 [32] of 15.5 µM. It also gave a TGI [32] of 30.6 µM, a GI50 [33] of 20 µM and a TGI [33] of 36.5 µM. The GI50 [34] was 12.2 µM, the TGI [34] was 34 µM and the GI50 [35] was 12 µM. For the same compound, the TGI [35] was 26.7 µM, the GI50 [36] was 3.07 µM and the TGI [36] was 9.95 µM. The GI50 [37] was 5.34 µM, the TGI [37] was 21.3 µM and the GI50 [38] was 12.9 µM. It also gave a TGI [38] of 28 µM, a GI50 [39] of 17.4 µM and a TGI [39] of 33.8 µM. The GI50 [40] was 16.3 µM, the TGI [40] was 30.7 µM and the GI50 [41] was 11.7 µM. It also gave a TGI [41] of 24.7 µM, a GI50 [42] of 16 µM and a TGI [42] of 30.3 µM. The GI50 [43] was 21.6 µM, the TGI [43] was 39.1 µM and the GI50 [44] was 12.1 µM. The TGI [44] was 28 µM, the GI50 [45] was 14.1 µM and the TGI [45] was 27.7 µM. The GI50 [46] was 13 µM, the TGI [46] was 25.9 µM and the GI50 [47] was 3.13 µM. For the same compound, the TGI [47] was 12.4 µM, the GI50 [48] was 7.21 µM and the TGI [48] was 26.6 µM. For the same compound, the GI50 [49] was 1.97 µM, the TGI [49] was 3.99 µM and the GI50 [50] was 21.5 µM. The TGI [50] was 37 µM, the GI50 [51] was 17.5 µM and the TGI [51] was 35 µM. The GI50 [52] was 14.2 µM, the TGI [52] was 29.2 µM and the GI50 [53] was 8.12 µM. The TGI [53] was 21.3 µM.
